# Biological target: T1, Human SST5 somatostatin receptor (SSTR5) (Homo sapiens, UniProt P35346)
# T1 construct: expressed in transfected cells; host or cells: HEK-293 EBNA
# Assay: Filter plate assay for SST5 receptor, displacement of [125I]SST-14
# Type: binding
# Settings: 0.5 uM
# Summary of the method: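 HEK-293 EBNA membranes expressing human SST5 (5.5 μg) incubated 60 min at 25 °C with 4 nM [125I]SST-14 and compound in pH 7.5 Tris/EGTA/MgCl2/sucrose buffer. Bound radioactivity collected on PEI-coated glass fiber filters and counted; triplicate 1:5 dilution series from 125 μM, non-specific binding with excess cold ligand.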
# T1 sequence (P35346 whole entry): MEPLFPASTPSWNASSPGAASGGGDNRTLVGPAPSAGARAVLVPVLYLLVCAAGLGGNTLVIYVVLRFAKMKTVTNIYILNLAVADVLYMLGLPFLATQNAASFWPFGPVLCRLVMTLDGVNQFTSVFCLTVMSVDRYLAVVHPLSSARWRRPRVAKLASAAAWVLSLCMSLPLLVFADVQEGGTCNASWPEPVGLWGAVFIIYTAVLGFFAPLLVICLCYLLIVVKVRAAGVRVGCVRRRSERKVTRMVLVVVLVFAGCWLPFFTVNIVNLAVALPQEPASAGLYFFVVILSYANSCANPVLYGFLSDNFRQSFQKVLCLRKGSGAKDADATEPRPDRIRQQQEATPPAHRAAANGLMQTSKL
row,Structure (SMILES),SSTR5 Inhib 0.5 uM % (inhibition of binding of SST-14 to SSTR5) [%]
1,COC[C@H]1OC(OCc2ccccc2)[C@H](NC(=O)CNC(=N)N)[C@H](OCc2ccc(-c3ccccc3)cc2)[C@@H]1O (stereo partly drawn) [Compound 119],37
2,COC[C@H]1OC(OCc2ccc(-c3ccccc3)cc2)[C@H](NC(=O)CCCNC(=N)N)[C@@H](OCc2ccc(Cl)cc2)[C@@H]1O (stereo partly drawn) [Compound 120],46
3,CO[C@H]1[C@H](O)[C@@H](COCc2ccc3ccccc3c2)OC(OCc2ccc(Cl)cc2)[C@@H]1NC(=O)CCCN (stereo partly drawn) [Compound 121],32
4,CO[C@H]1[C@H](O)[C@@H](COCc2ccc(Cl)cc2)OC(OCc2ccc(Cl)cc2)[C@@H]1NC(=O)CCCN (stereo partly drawn) [Compound 122],39
5,COC[C@H]1OC(OCc2ccc(Cl)cc2)[C@H](NC(=O)CCNC(=N)N)[C@@H](OCc2ccc(Cl)cc2)[C@@H]1O (stereo partly drawn) [Compound 123],40
6,NCCC(=O)N[C@H]1CO[C@H](COCc2ccc(-c3ccccc3)cc2)[C@@H](O)[C@H]1OCc1ccc(Cl)cc1 [Compound 124],50
7,CSC1O[C@H](COCc2ccc(Cl)cc2)[C@@H](O)[C@@H](OCc2ccc3ccccc3c2)[C@H]1NC(=O)CCNC(=N)N (stereo partly drawn) [Compound 125],34
8,CO[C@H]1[C@H](O)[C@@H](COCc2ccc3ccccc3c2)OC(OCc2ccc3ccccc3c2)[C@@H]1NC(=O)CNC(=N)N (stereo partly drawn) [Compound 126],57
9,CSC1O[C@H](COCc2ccc(-c3ccccc3)cc2)[C@@H](O)[C@@H](OCc2ccc3ccccc3c2)[C@H]1NC(=O)CCCN (stereo partly drawn) [Compound 127],48
10,CSC1O[C@H](COCc2ccccc2)[C@@H](O)[C@@H](OCc2ccc3ccccc3c2)[C@H]1NC(=O)CCNC(=N)N (stereo partly drawn) [Compound 128],28
11,COC[C@H]1OC(OCc2ccc(-c3ccccc3)cc2)[C@H](NC(=O)CNC(=N)N)[C@@H](OCc2ccc(-c3ccccc3)cc2)[C@@H]1O (stereo partly drawn) [Compound 129],36
12,COC[C@H]1OC(OCc2ccc(-c3ccccc3)cc2)[C@H](NC(=O)CCCNC(=N)N)[C@@H](OCc2ccc(-c3ccccc3)cc2)[C@@H]1O (stereo partly drawn) [Compound 130],40
13,CSC1O[C@H](COCc2ccc3ccccc3c2)[C@@H](O)[C@@H](OCc2ccc3ccccc3c2)[C@H]1NC(=O)CNC(=N)N (stereo partly drawn) [Compound 131],52
14,COC[C@H]1OC(OCCc2ccccc2)[C@H](NC(=O)CCCNC(=N)N)[C@@H](OCc2ccc(-c3ccccc3)cc2)[C@@H]1O (stereo partly drawn) [Compound 132],39
15,COC[C@H]1OC(OCc2ccc3ccccc3c2)[C@H](NC(=O)CNC(=N)N)[C@H](OCc2ccc(Cl)cc2)[C@@H]1O (stereo partly drawn) [Compound 133],24
16,COC1C(O)C(COCc2ccc(Cl)cc2)OC(OCc2ccc3ccccc3c2)C1NC(=O)CCCNC(=N)N (stereo not drawn) [Compound 134],55
17,COC[C@H]1OC(OCc2ccc3ccccc3c2)[C@H](NC(=O)CCCNC(=N)N)[C@@H](OCc2ccccc2)[C@@H]1O (stereo partly drawn) [Compound 135],45
18,COC1C(O)C(COCc2ccc(-c3ccccc3)cc2)OC(OCc2ccc(-c3ccccc3)cc2)C1NC(=O)CCNC(=N)N (stereo not drawn) [Compound 136],26
19,COC[C@H]1OC(OCc2ccc3ccccc3c2)[C@H](NC(=O)CNC(=N)N)[C@@H](OCc2ccc3ccccc3c2)[C@@H]1O (stereo partly drawn) [Compound 137],43
20,COC[C@H]1OC(OCc2ccccc2)[C@H](NC(=O)CCCNC(=N)N)[C@H](OCc2ccc(Cl)cc2)[C@@H]1O (stereo partly drawn) [Compound 138],39
21,CSC1O[C@H](COCc2ccc(-c3ccccc3)cc2)[C@@H](O)[C@@H](OCc2ccc3ccccc3c2)[C@H]1NC(=O)CNC(=N)N (stereo partly drawn) [Compound 139],34

# Same assay, conditions: 10 uM
row,Structure (SMILES),SSTR5 Inhib 10 uM % (inhibition of binding of SST-14 to SSTR5) [%]
1,COC[C@H]1OC(OCc2ccccc2)[C@H](NC(=O)CNC(=N)N)[C@H](OCc2ccc(-c3ccccc3)cc2)[C@@H]1O (stereo partly drawn) [Compound 119],81
2,COC[C@H]1OC(OCc2ccc(-c3ccccc3)cc2)[C@H](NC(=O)CCCNC(=N)N)[C@@H](OCc2ccc(Cl)cc2)[C@@H]1O (stereo partly drawn) [Compound 120],81
3,CO[C@H]1[C@H](O)[C@@H](COCc2ccc3ccccc3c2)OC(OCc2ccc(Cl)cc2)[C@@H]1NC(=O)CCCN (stereo partly drawn) [Compound 121],81
4,CO[C@H]1[C@H](O)[C@@H](COCc2ccc(Cl)cc2)OC(OCc2ccc(Cl)cc2)[C@@H]1NC(=O)CCCN (stereo partly drawn) [Compound 122],81
5,COC[C@H]1OC(OCc2ccc(Cl)cc2)[C@H](NC(=O)CCNC(=N)N)[C@@H](OCc2ccc(Cl)cc2)[C@@H]1O (stereo partly drawn) [Compound 123],81
6,NCCC(=O)N[C@H]1CO[C@H](COCc2ccc(-c3ccccc3)cc2)[C@@H](O)[C@H]1OCc1ccc(Cl)cc1 [Compound 124],80
7,CSC1O[C@H](COCc2ccc(Cl)cc2)[C@@H](O)[C@@H](OCc2ccc3ccccc3c2)[C@H]1NC(=O)CCNC(=N)N (stereo partly drawn) [Compound 125],80
8,CO[C@H]1[C@H](O)[C@@H](COCc2ccc3ccccc3c2)OC(OCc2ccc3ccccc3c2)[C@@H]1NC(=O)CNC(=N)N (stereo partly drawn) [Compound 126],80
9,CSC1O[C@H](COCc2ccc(-c3ccccc3)cc2)[C@@H](O)[C@@H](OCc2ccc3ccccc3c2)[C@H]1NC(=O)CCCN (stereo partly drawn) [Compound 127],80
10,CSC1O[C@H](COCc2ccccc2)[C@@H](O)[C@@H](OCc2ccc3ccccc3c2)[C@H]1NC(=O)CCNC(=N)N (stereo partly drawn) [Compound 128],80
11,COC[C@H]1OC(OCc2ccc(-c3ccccc3)cc2)[C@H](NC(=O)CNC(=N)N)[C@@H](OCc2ccc(-c3ccccc3)cc2)[C@@H]1O (stereo partly drawn) [Compound 129],80
12,COC[C@H]1OC(OCc2ccc(-c3ccccc3)cc2)[C@H](NC(=O)CCCNC(=N)N)[C@@H](OCc2ccc(-c3ccccc3)cc2)[C@@H]1O (stereo partly drawn) [Compound 130],80
13,CSC1O[C@H](COCc2ccc3ccccc3c2)[C@@H](O)[C@@H](OCc2ccc3ccccc3c2)[C@H]1NC(=O)CNC(=N)N (stereo partly drawn) [Compound 131],80
14,COC[C@H]1OC(OCCc2ccccc2)[C@H](NC(=O)CCCNC(=N)N)[C@@H](OCc2ccc(-c3ccccc3)cc2)[C@@H]1O (stereo partly drawn) [Compound 132],80
15,COC[C@H]1OC(OCc2ccc3ccccc3c2)[C@H](NC(=O)CNC(=N)N)[C@H](OCc2ccc(Cl)cc2)[C@@H]1O (stereo partly drawn) [Compound 133],80
16,COC1C(O)C(COCc2ccc(Cl)cc2)OC(OCc2ccc3ccccc3c2)C1NC(=O)CCCNC(=N)N (stereo not drawn) [Compound 134],79
17,COC[C@H]1OC(OCc2ccc3ccccc3c2)[C@H](NC(=O)CCCNC(=N)N)[C@@H](OCc2ccccc2)[C@@H]1O (stereo partly drawn) [Compound 135],79
18,COC1C(O)C(COCc2ccc(-c3ccccc3)cc2)OC(OCc2ccc(-c3ccccc3)cc2)C1NC(=O)CCNC(=N)N (stereo not drawn) [Compound 136],79
19,COC[C@H]1OC(OCc2ccc3ccccc3c2)[C@H](NC(=O)CNC(=N)N)[C@@H](OCc2ccc3ccccc3c2)[C@@H]1O (stereo partly drawn) [Compound 137],79
20,COC[C@H]1OC(OCc2ccccc2)[C@H](NC(=O)CCCNC(=N)N)[C@H](OCc2ccc(Cl)cc2)[C@@H]1O (stereo partly drawn) [Compound 138],79
21,CSC1O[C@H](COCc2ccc(-c3ccccc3)cc2)[C@@H](O)[C@@H](OCc2ccc3ccccc3c2)[C@H]1NC(=O)CNC(=N)N (stereo partly drawn) [Compound 139],79

# Reference: patent US20080280837A1, “Biologically Active Compounds with Anti-Angiogenic Properties” (priority 2004, published 2008)
